Structures can show the parent of a compound that is named as a salt.
Each compound was assayed against PDE10A (Homo sapiens (Human), UniProt Q9Y233) (assay: Measurement of PDE activity (recombinant PDE, cAMP HTRF)). Settings: 20 nM cyclic nucleotide substrate, 60 minutes at 29 C.
Assay type: biochemical
Protocol: a) Measurement of PDE Activity
The recombinant PDE proteins are used in in vitro enzymatic reaction for measurement of PDE activity. These recombinant proteins, including PDE10A (human, rat and mouse PDE10) and isoforms of PDEs 1, 3, 4, and 5, were purchased from commercial vendor BPS Bioscience. The enzymatic activity of PDEs was determined by cAMP measurement kit from CisBio (IBA) using HTRF technology.
The PDE enzymatic reaction was carried out in assay buffer (20 mM Tris-HCl pH7.5, 10 mM MgCl2, 0.1% bovine serum albumin) containing enzyme and substrate. […] The substrate cyclic nucleotide (cAMP or cGMP) concentration used in the assay was 20 nM for PDE10, and 100 nM for other PDEs. The inhibitory effect of compound was determined by incubating various concentration of inhibitor in the enzymatic assay. […] Next, the compound at varying concentration was mixed with PDE enzyme. The reaction was initiated by addition of cyclic nucleotide substrate, and incubated for 60 minutes at 29 C. The reaction was stopped by addition of lysis buffer from assay kit. The cAMP-d2 and anti-cAMP cryptate in the lysis buffer detected the level of cAMP left from the PDE hydrolysis reaction. […] Thus, IC50 value of inhibitor can be obtained by plotting inhibitor concentration against PDE activity at that concentration.

Sequence of PDE10A (Q9Y233 whole entry, species assumed): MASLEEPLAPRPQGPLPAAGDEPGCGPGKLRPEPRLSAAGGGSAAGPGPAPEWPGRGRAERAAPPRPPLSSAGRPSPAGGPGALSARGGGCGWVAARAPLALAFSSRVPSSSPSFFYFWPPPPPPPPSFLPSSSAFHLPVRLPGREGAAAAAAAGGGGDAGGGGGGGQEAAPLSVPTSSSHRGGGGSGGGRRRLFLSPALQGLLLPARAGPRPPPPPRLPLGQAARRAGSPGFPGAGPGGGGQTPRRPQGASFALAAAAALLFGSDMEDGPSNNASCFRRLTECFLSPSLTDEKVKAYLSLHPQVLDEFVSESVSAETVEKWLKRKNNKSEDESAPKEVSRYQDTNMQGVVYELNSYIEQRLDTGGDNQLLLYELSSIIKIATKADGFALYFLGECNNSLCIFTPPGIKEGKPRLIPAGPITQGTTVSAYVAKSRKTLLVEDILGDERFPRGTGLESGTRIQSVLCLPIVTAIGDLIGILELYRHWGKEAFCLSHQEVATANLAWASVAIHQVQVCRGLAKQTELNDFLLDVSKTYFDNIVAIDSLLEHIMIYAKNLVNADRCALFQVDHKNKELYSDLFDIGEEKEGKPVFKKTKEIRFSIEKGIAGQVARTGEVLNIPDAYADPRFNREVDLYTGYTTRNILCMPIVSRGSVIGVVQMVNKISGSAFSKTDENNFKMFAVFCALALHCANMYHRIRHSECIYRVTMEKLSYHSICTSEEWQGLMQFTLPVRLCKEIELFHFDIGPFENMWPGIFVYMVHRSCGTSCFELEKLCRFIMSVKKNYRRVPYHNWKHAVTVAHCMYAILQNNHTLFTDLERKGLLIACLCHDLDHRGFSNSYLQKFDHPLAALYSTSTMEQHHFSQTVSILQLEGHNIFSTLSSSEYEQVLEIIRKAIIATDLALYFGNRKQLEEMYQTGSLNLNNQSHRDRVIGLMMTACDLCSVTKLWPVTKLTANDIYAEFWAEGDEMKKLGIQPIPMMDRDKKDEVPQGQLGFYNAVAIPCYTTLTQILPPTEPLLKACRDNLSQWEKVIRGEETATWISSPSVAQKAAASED

| Structure (SMILES) | IC50 [µM] |
| --- | --- |
| CCn1cc(C(=O)NC2CCc3cc(C)ccc32)c2cc(OC)c(OC)cc2c1=O (stereo not shown) [Example 175, 2-Ethyl-6,7-dimethoxy-N-(5-methyl-2,3-dihydro-1H-inden-1-yl)-1-oxo-1,2-dihydroisoquinoline-4-carboxamide] | 0.2 to 0.5 |
| CCn1cc(C(=O)NC2CCc3ccc(OC)cc32)c2cc(OC)c(OC)cc2c1=O (stereo not shown) [Example 176, 2-Ethyl-6,7-dimethoxy-N-(6-methoxy-2,3-dihydro-1H-inden-1-yl)-1-oxo-1,2-dihydroisoquinoline-4-carboxamide] | 0.2 to 0.5 |
| CCn1cc(C(=O)NC2CCc3cc(F)ccc32)c2cc(OC)c(OC)cc2c1=O (stereo not shown) [Example 177, 2-Ethyl-N-(5-fluoro-2,3-dihydro-1H-inden-1-yl)-6,7-dimethoxy-1-oxo-1,2-dihydroisoquinoline-4-carboxamide] | 0.2 to 0.5 |
| CCC(CC)n1cc(C(=O)NC2COc3ccccc32)c2cc(OC)c(OC)cc2c1=O (stereo not shown) [Example 194, 2-(1-Ethyl-propyl)-6,7-dimethoxy-1-oxo-1,2-dihydro-isoquinoline-4-carboxylic acid (2,3-dihydro-benzofuran-3-yl)-amide] | < 0.1 |
| CCC(CC)n1nc(C(=O)NC2CCc3ncccc32)c2cc(OC)c(OC)cc2c1=O (stereo not shown) [Example 233, 3-(1-Ethyl-propyl)-6,7-dimethoxy-4-oxo-3,4-dihydro-phthalazine-1-carboxylic acid (6,7-dihydro-5H-[1]pyrindin-5-yl)-amide] | 0.1 to 0.2 |
| CCC(CC)n1cc(C(=O)NCc2ccc(C)s2)c2cc(OC)c(OC)cc2c1=O [Example 237, 6,7-Dimethoxy-N-((5-methylthiophen-2-yl)methyl)-1-oxo-2-(pentan-3-yl)-1,2-dihydroisoquinoline-4-carboxamide] | 0.1 to 0.2 |
| CCC(CC)n1cc(C(=O)NCc2cc(C)sc2C)c2cc(OC)c(OC)cc2c1=O [Example 242, N-((2,5-dimethylthiophen-3-yl)methyl)-6,7-dimethoxy-1-oxo-2-(pentan-3-yl)-1,2-dihydroisoquinoline-4-carboxamide] | 0.2 to 0.5 |
| CCC(CC)n1cc(C(=O)NCc2scnc2C)c2cc(OC)c(OC)cc2c1=O [Example 249, 6,7-Dimethoxy-N-((4-methylthiazol-5-yl)methyl)-1-oxo-2-(pentan-3-yl)-1,2-dihydroisoquinoline-4-carboxamide] | 0.2 to 0.5 |
| CCC(CC)n1cc(C(=O)NC2CCc3cc(F)ccc32)c2cc(OC)c(OC)cc2c1=O (stereo not shown) [Example 252, N-(5-Fluoro-2,3-dihydro-1H-inden-1-yl)-6,7-dimethoxy-1-oxo-2-(pentan-3-yl)-1,2-dihydroisoquinoline-4-carboxamide] | 0.1 to 0.2 |
| CCC(CC)n1cc(C(=O)NC2CCc3cc(C)ccc32)c2cc(OC)c(OC)cc2c1=O (stereo not shown) [Example 253, 6,7-Dimethoxy-N-(5-methyl-2,3-dihydro-1H-inden-1-yl)-1-oxo-2-(pentan-3-yl)-1,2-dihydroisoquinoline-4-carboxamide] | < 0.1 |
| CCC(CC)n1cc(C(=O)NC2CCc3c(C)cccc32)c2cc(OC)c(OC)cc2c1=O (stereo not shown) [Example 254, 6,7-Dimethoxy-N-(4-methyl-2,3-dihydro-1H-inden-1-yl)-1-oxo-2-(pentan-3-yl)-1,2-dihydroisoquinoline-4-carboxamide] | < 0.1 |
| CCC(CC)n1cc(C(=O)NCc2cc(C)cs2)c2cc(OC)c(OC)cc2c1=O [Example 257, 6,7-Dimethoxy-N-((4-methylthiophen-2-yl)methyl)-1-oxo-2-(pentan-3-yl)-1,2-dihydroisoquinoline-4-carboxamide] | 0.1 to 0.2 |
| CCC(CC)n1cc(C(=O)NCc2sccc2C)c2cc(OC)c(OC)cc2c1=O [Example 258, 6,7-Dimethoxy-N-((3-methylthiophen-2-yl)methyl)-1-oxo-2-(pentan-3-yl)-1,2-dihydroisoquinoline-4-carboxamide] | 0.1 to 0.2 |
| CCC(CC)n1cc(C(=O)NCc2ncc(C)o2)c2cc(OC)c(OC)cc2c1=O [Example 259, 6,7-Dimethoxy-N-((5-methyloxazol-2-yl)methyl)-1-oxo-2-(pentan-3-yl)-1,2-dihydroisoquinoline-4-carboxamide] | 0.2 to 0.5 |
| CCC(CC)n1cc(C(=O)NC2CCc3ccc(C)cc32)c2cc(OC)c(OC)cc2c1=O (stereo not shown) [Example 260, 6,7-Dimethoxy-N-(6-methyl-2,3-dihydro-1H-inden-1-yl)-1-oxo-2-(pentan-3-yl)-1,2-dihydroisoquinoline-4-carboxamide] | 0.1 to 0.2 |

Results, then the compound that gave them:

| IC50 [µM] | Structure (SMILES) |
| --- | --- |
| 0.2 to 0.5 | CCn1cc(C(=O)NC2CCc3c(C)cccc32)c2cc(OC)c(OC)cc2c1=O (stereo not shown) [Example 174, 2-Ethyl-6,7-dimethoxy-N-(4-methyl-2,3-dihydro-1H-inden-1-yl)-1-oxo-1,2-dihydroisoquinoline-4-carboxamide] |
| 0.1 to 0.2 | CCCCNC(=O)c1cn(CCc2ccc3ccccc3n2)c(=O)c2cc(OC)ccc12 [Example 182, 7-Methoxy-1-oxo-2-(2-quinolin-2-yl-ethyl)-1,2-dihydro-isoquinoline-4-carboxylic acid butylamide] |
| 0.2 to 0.5 | CCC(CC)n1cc(C(=O)NCc2ccccc2CN(C)C)c2cc(OC)c(OC)cc2c1=O [Example 187, 2-(1-Ethyl-propyl)-6,7-dimethoxy-1-oxo-1,2-dihydro-isoquinoline-4-carboxylic acid 2-dimethylaminomethyl-benzylamide hydrochloride] |
| 0.1 to 0.2 | CCC(CC)n1cc(C(=O)NCc2cc(F)cc(F)c2)c2cc(OC)c(OC)cc2c1=O [Example 188, 2-(1-Ethyl-propyl)-6,7-dimethoxy-1-oxo-1,2-dihydro-isoquinoline-4-carboxylic acid 3,5-difluoro-benzylamide] |
| 0.1 to 0.2 | CCC(CC)n1cc(C(=O)NCc2ccc(F)c(F)c2)c2cc(OC)c(OC)cc2c1=O [Example 189, 2-(1-Ethyl-propyl)-6,7-dimethoxy-1-oxo-1,2-dihydro-isoquinoline-4-carboxylic acid 3,4-difluoro-benzylamide] |
| 0.2 to 0.5 | CCC(CC)n1cc(C(=O)N[C@@H]2CCc3ccccc32)c2cc(OC)c(OC)cc2c1=O [Example 191, 2-(1-Ethyl-propyl)-6,7-dimethoxy-1-oxo-1,2-dihydro-isoquinoline-4-carboxylic acid (R)-indan-1-ylamide] |
| < 0.1 | CCC(CC)n1cc(C(=O)NC2CCc3sccc32)c2cc(OC)c(OC)cc2c1=O (stereo not shown) [Example 193, 2-(1-Ethyl-propyl)-6,7-dimethoxy-1-oxo-1,2-dihydro-isoquinoline-4-carboxylic acid (5,6-dihydro-4H-cyclopenta[b]thiophen-4-yl)-amide] |
| < 0.1 | CCC(CC)n1cc(C(=O)NC2CSc3ccccc32)c2cc(OC)c(OC)cc2c1=O (stereo not shown) [Example 216, 2-(1-Ethyl-propyl)-6,7-dimethoxy-1-oxo-1,2-dihydro-isoquinoline-4-carboxylic acid (2,3-dihydro-benzo[b]thiophen-3-yl)-amide] |
| 0.1 to 0.2 | CCn1cc(C(=O)NC2CCc3sccc32)c2cnc(OC)cc2c1=O (stereo not shown) [Example 230, 2-Ethyl-7-methoxy-1-oxo-1,2-dihydro-[2,6]naphthyridine-4-carboxylic acid (5,6-dihydro-4H-cyclopenta[b]thiophen-4-yl)-amide] |
| 0.2 to 0.5 | CCc1nc(CNC(=O)c2cn(C(CC)CC)c(=O)c3cc(OC)c(OC)cc23)cs1 [Example 255, N-((2-Ethylthiazol-4-yl)methyl)-6,7-dimethoxy-1-oxo-2-(pentan-3-yl)-1,2-dihydroisoquinoline-4-carboxamide] |

Reference: patent publication US9856220B2 (AbbVie Deutschland GmbH & Co. KG, priority 2011, dated 2018)
